Values joined by “and” are separate entries in the source; they are usually repeats but may differ in a detail not shown here. Identical values can stand only once. “Also recorded” adds a separate entry of the source. Blank lines part the entries; values can stand above or below the molecule they belong to.
Assays:
Type in all cases: cell-based
Px1 hemi-channels = target: T1, Px1 hemi-channels (Rattus norvegicus, UniProt P60570); assay: Px1 hemi-channel currents in single Xenopus oocytes (two-electrode voltage-clamp)
T1 construct: expressed in transfected cells; host or cells: Xenopus laevis oocytes injected with in vitro transcribed RNA (pBSxG vector) plus antisense to endogenous Cx38
T1 sequence (P60570 whole entry): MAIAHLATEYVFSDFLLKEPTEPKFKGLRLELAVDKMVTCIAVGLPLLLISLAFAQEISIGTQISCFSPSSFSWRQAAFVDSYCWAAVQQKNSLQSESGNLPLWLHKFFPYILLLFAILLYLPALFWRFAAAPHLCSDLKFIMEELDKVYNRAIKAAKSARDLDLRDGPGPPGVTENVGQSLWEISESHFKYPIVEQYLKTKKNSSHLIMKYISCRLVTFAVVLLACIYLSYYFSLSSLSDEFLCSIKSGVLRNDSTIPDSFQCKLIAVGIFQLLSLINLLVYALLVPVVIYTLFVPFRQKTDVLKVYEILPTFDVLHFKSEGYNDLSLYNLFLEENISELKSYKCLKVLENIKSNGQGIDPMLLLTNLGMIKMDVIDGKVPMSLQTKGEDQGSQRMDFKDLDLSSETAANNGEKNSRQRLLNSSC
Description: For physiological analysis, cells were injected with a total volume of 40 nl of either an antisense oligonucleotide (3 ng/cell) to suppress the endogenous Xenopus Cx38 (30), or a mixture of antisense plus the specified RNA (20-80 ng/cell). The ability of pannexins to form hemi-channels was assessed in single oocytes 2-4 days after RNA injection, using a two-electrode voltage-clamp.
Whole-cell membrane currents (Im) were measured from single oocytes co-injected with pannexin RNAs and an oligonucleotide antisense to Xenopus Cx38 (FIG. 3A). Cells were initially clamped at a membrane potential (Vm) of −40 mV and depolarizing steps lasting 2 sec were applied in 10 mV increments up to +60 mV (bottom traces).
(§1) Stage V-VI cells were individually selected under a dissecting microscope and cultured thereafter in control medium at 18° C. For physiological analysis, all cells were injected with a total volume of 40 nl of either an antisense oligonucleotide (3 ng/cell) to suppress the endogenous Xenopus Cx38 (30; 51), or a mixture of antisense (as above) plus the specified pannexin or connexin RNA. The following amounts of RNAs were injected: 40-80 ng/cell for Px1 and Px2 RNAs, either separately or co-injected at a 1:1 ratio; 4 ng/cell for Cx46; 10-20 ng/cell for Cx52.6. For analysis of Cx46 hemi-channels, the extracellular Ca^2+ concentration was raised to 2.9 mM to prevent the lysis of the injected oocytes that occurs in control medium, which contains 0.9 mM Ca^2+ (53). To characterize hemi-channel activity, current recordings were performed in single oocytes 24-96 hr after RNA injection, using a two-electrode voltage-clamp procedure.
(§2) The setup, hardware and software used for electrophysiological measurements and data analysis were as previously described (54; 49). Cells were clamped at −40 mV, and whole cell currents recorded in response to depolarizing voltage steps (from −20 to +60 mV in 20 mV increments) imposed for 2 sec. Current outputs were filtered at 200 Hz and sampled at 500 Hz.
All experiments were carried out at 18° C. Carbenoxolone (the succinyl ester of glycyrrhetinic acid), β-glycyrrhetinic acid and flufenamic (Sigma-Aldrich) were prepared freshly by dissolving them in either water (in the case of carbenoxolone) or dimethyl sulfoxide (DMSO), whose final concentration never exceeded 0.1%. […] Oocytes were placed on a Teflon tubing in a perfusion chamber and drugs were delivered using an electronically controlled gravity flow perfusion system (ALA Scientific Instruments, Westbury, N.Y.). […] Current-voltage (I-V) relationships were generated by plotting peak current values above holding currents (ΔIm) versus membrane potential. The time constants (τ) of voltage-dependent transitions of hemi-channel currents were calculated using data fitting functions in Origin 6.0 (Microcal Software, Northampton, Mass.). In all experiments, positive controls showing the effect of the tested drugs were routinely included.

Px1/Px2 hemi-channels = target: T2, Px1/Px2 hemi-channels (Rattus norvegicus, UniProt P60570+P60571); assay: Heteromeric Px1/Px2 hemi-channel currents in single Xenopus oocytes (two-electrode voltage-clamp)
T2 construct: expressed in transfected cells; host or cells: Xenopus laevis oocytes co-injected with Px1 and Px2 RNA (1:1) plus antisense to endogenous Cx38
T2 sequence (P60570 whole entry): as above
T2 sequence (P60571 11-674): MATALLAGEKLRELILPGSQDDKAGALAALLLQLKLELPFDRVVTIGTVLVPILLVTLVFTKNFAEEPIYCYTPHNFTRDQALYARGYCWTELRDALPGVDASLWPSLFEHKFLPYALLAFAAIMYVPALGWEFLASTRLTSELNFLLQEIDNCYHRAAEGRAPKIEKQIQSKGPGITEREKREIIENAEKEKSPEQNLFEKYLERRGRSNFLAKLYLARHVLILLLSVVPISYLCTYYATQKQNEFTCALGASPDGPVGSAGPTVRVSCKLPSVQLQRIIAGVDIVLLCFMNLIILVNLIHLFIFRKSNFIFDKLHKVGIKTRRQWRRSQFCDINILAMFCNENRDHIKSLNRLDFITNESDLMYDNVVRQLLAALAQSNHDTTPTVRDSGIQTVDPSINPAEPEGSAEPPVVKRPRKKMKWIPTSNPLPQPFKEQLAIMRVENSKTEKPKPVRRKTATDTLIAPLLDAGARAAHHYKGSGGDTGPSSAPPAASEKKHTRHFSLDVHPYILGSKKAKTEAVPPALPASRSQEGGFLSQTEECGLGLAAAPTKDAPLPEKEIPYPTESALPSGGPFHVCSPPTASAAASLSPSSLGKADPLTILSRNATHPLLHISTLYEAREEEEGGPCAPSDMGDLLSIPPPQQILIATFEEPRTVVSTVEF
Description: as §1, §2
All experiments were carried out at 18° C. Carbenoxolone (the succinyl ester of glycyrrhetinic acid), β-glycyrrhetinic acid and flufenamic (Sigma-Aldrich) were prepared freshly by dissolving them in either water (in the case of carbenoxolone) or dimethyl sulfoxide (DMSO), whose final concentration never exceeded 0.1%. […] Oocytes were placed on a Teflon tubing in a perfusion chamber and drugs were delivered using an electronically controlled gravity flow perfusion system (ALA Scientific Instruments, Westbury, N.Y.). Cells were incubated for 15-30 minutes in the presence of the different drugs and reversibility was recorded after extensive washings in control medium. Current-voltage (I-V) relationships were generated by plotting peak current values above holding currents (ΔIm) versus membrane potential. The time constants (τ) of voltage-dependent transitions of hemi-channel currents were calculated using data fitting functions in Origin 6.0 (Microcal Software, Northampton, Mass.). In all experiments, positive controls showing the effect of the tested drugs were routinely included.

Cx46 hemi-channels = target: T3, Cx46 hemi-channels (Rattus norvegicus, UniProt P29414); assay: Cx46 hemi-channel currents in single Xenopus oocytes (two-electrode voltage-clamp)
T3 construct: expressed in transfected cells; host or cells: Xenopus laevis oocytes injected with Cx46 RNA (4 ng/cell) plus antisense to endogenous Cx38
Description: as §1, §2
All experiments were carried out at 18° C. Carbenoxolone (the succinyl ester of glycyrrhetinic acid), β-glycyrrhetinic acid and flufenamic (Sigma-Aldrich) were prepared freshly by dissolving them in either water (in the case of carbenoxolone) or dimethyl sulfoxide (DMSO), whose final concentration never exceeded 0.1%. […] Cells were incubated for 15-30 minutes in the presence of the different drugs and reversibility was recorded after extensive washings in control medium. […] The time constants (τ) of voltage-dependent transitions of hemi-channel currents were calculated using data fitting functions in Origin 6.0 (Microcal Software, Northampton, Mass.). […]

effect on time constant (τ) of Px1 channel closure (Px1 hemi-channels; 3 μM CBX, +60 mV): gated much faster than in control medium
time constants (τ) of Px1 channel closure, faster than in control medium (Px1 hemi-channels; 3 μM CBX, depolarized to +60 mV from −40 mV, first order exponential decay fit): approximately 10 times
decrease of Px1 hemi-channel currents (Px1 hemi-channels; 10 μM CBX, 30 min incubation): 50-60%
effect on Px1 currents (Px1 hemi-channels; 30 μM carbenoxolone, 10-30 min incubation): completely suppressed Px1 currents
peak amplitude of Px1 currents at +60 mV (Px1 hemi-channels; 30 μM carbenoxolone, 10-30 min incubation, control medium 1189±170 nA, n=4): 255±47 nA
Hill coefficient (Px1 hemi-channels; concentration dependence of blockade of Px1 hemi-channel currents): ~1
IC50 (Px1 hemi-channels; normalized peak currents at +60 mV, fit to Hill equation, 3-9 cells, read-out: IC50 of blockade of Px1 hemi-channel currents): 5 µM and ~5 µM
reversibility of inhibition of Px1 hemi-channels (Px1 hemi-channels; up to highest dose tested (100 μM), washout and 30 min in control medium): always reversible
effect on Px1 hemi-channel currents (Px1 hemi-channels; very low CBX concentrations (<1 μM)): ineffective
decrease of Px1/Px2 hemi-channel currents (Px1/Px2 hemi-channels; 10 μM CBX, 30 min incubation): 50-60%
current amplitude at the +60 mV depolarization step (Px1/Px2 hemi-channels; 10 μM CBX, control medium 612±50 nA, n=6 cells): 266±24 nA
current amplitude at the +60 mV depolarization step after reversibility period (Px1/Px2 hemi-channels; after 10 μM CBX, washout and 30 min in control medium, n=6 cells): 541±70 nA
SMILES: CC1(C)[C@@H](OC(=O)CCC(=O)O)CC[C@]2(C)[C@H]3C(=O)C=C4[C@@H]5C[C@@](C)(C(=O)O)CC[C@]5(C)CC[C@@]4(C)[C@]3(C)CC[C@@H]12 [carbenoxolone]
effect on Px1 hemi-channel currents (Px1 hemi-channels; 50 μM, 30 min incubation, reversible on washout, listed as CBX): robust and reversible decrease; also recorded: strongly blocked
effect on I-V relationship of Cx46-expressing oocytes (Cx46 hemi-channels; 10 μM CBX, 30 min incubation): virtually identical to that measured in control medium

inhibition of Px1 currents (Px1 hemi-channels; 30 μM FFA, 30 min, at the more positive potentials): 10-15%
extent of Px1 channel blockade (Px1 hemi-channels; highest FFA concentration used (300 μM), +60 mV): ≤ 33%
inhibitory effect on pannexins (Px1 hemi-channels; summary statement): only a modest inhibitory effect
inhibition of Px1/Px2 current amplitudes at +60 mV (Px1/Px2 hemi-channels; 30 μM FFA, n=12): about 15%
Px1/Px2 current amplitude at +60 mV (Px1/Px2 hemi-channels; 30 μM FFA, 603±123 nA in MB, n=12): 504±101 nA
Px1/Px2 current amplitude at +60 mV (Px1/Px2 hemi-channels; 300 μM FFA, 609±135 nA before, n=11): 448±104 nA
inhibition at 300 µM (Px1/Px2 hemi-channels; highest FFA concentration (300 μM), n=11, read-out: inhibition of Px1/Px2 current amplitudes at +60 mV): 27%
SMILES: O=C(O)c1ccccc1Nc1cccc(C(F)(F)F)c1 [flufenamic acid]
effect on time constant (τ) of Px1 channel closure (Px1 hemi-channels; 300 μM FFA, +60 mV, listed as FFA): did not affect the time constant of channel closure; also recorded: did not show any appreciable change
effect on Px1 hemi-channels (Px1 hemi-channels; increasing FFA concentrations up to 300 μM, 30 min, listed as FFA): moderate inhibition of Px1 currents; also recorded: modest inhibition of Px1 hemi-channels only at the highest dose
effect on Cx46 hemi-channels (Cx46 hemi-channels; 30 μM FFA, 30 min application, starting with the 0 mV depolarization step): strong (P<0.005) and fully reversible inhibition
effect on Cx46 hemi-channel currents (Cx46 hemi-channels; increasing FFA concentrations, 300 μM FFA, 30 min, listed as FFA): virtually suppressed Cx46 hemi-channels; also recorded: almost complete blockade

SMILES: CC1(C)[C@@H](O)CC[C@]2(C)[C@H]3C(=O)C=C4[C@H]5C[C@@](C)(C(=O)O)CC[C@]5(C)CC[C@@]4(C)[C@]3(C)CC[C@@H]12 [βGA, β-glycyrrhetinic acid]
effect on Px1 hemi-channel currents (Px1 hemi-channels; 50 μM, 30 min incubation, reversible on washout): robust and reversible decrease; also recorded: strongly blocked
